Structures are written as SMILES.

The target of test [1] is T1, recombinant human ALK5 (TGF-βR1) protein (Homo sapiens, UniProt P36897).
T1 construct: purchased Life Technologies PR9075A
T1 sequence (P36897 34-503): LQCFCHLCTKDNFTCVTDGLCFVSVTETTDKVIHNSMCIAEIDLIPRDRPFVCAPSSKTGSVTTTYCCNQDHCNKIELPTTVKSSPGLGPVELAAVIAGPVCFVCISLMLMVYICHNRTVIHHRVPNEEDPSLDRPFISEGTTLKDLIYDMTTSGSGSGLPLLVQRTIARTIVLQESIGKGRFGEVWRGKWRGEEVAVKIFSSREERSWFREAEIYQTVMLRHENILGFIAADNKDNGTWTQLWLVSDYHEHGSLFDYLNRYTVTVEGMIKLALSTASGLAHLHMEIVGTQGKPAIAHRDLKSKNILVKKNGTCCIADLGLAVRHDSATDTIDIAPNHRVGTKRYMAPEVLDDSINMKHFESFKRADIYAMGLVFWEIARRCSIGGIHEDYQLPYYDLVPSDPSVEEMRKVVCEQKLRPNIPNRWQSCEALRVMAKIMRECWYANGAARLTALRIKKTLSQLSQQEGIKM
The test can be described thus: Biochemical ALK5 (TGF-βR1) assay to measure pKi (LANCE Ultra ULight kinase assay). Particulars: apparent pKi, converted from pIC50 by Cheng-Prusoff. The gist of the method:
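Read-out was LANCE Ultra TR-FRET with a europium anti-phospho-Topo IIα Thr1342 antibody after EDTA quench. Kinase reaction ran 60 min at 37 °C with ATP added from a 125 μM 5× stock, after 60 min compound–enzyme equilibration at room temperature. Values are pKi from Cheng-Prusoff conversion of fitted pIC50.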
(In general: TR-FRET usually uses a lanthanide donor and a delayed reading to cut background.)

Test [2] deals with TGF-β-stimulated SMAD3 phosphorylation in BEAS-2B cells. The test can be described thus: Cellular ALK5 potency assay, inhibition of TGF-β stimulated pSMAD3 formation in BEAS-2B cells. It counts as cell-based. The conditions noted are these: Homo sapiens, pSMAD3, TGF-β 10 ng/mL, read-out: BEAS2B pIC50 (converted). The gist of the method:
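Reported as pIC50, potency reflects dose-dependent loss of AlphaLISA pSMAD3 signal versus TGF-β-stimulated, compound-free BEAS-2B cells. Compound was applied for 1 h in BSA-containing HBSS buffer before a 30-min challenge with TGF-β at 10 ng/mL final.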

Take `Cc1cccc(-c2nccc(Nc3ccnc(Nc4nc(C(=O)O[C@@H]5CCN(C)C5)cs4)n3)n2)n1` [Compound 291, [(3R)-1-methylpyrrolidin-3-yl] 2-[[4-[[2-(6-methyl-2-pyridyl)pyrimidin-4-yl]amino]pyrimidin-2-yl]amino]thiazole-4-carboxylate]: the Ki in test [1] was 0.398 to 3.16 nM. For the same molecule, in test [2], the IC50 is 25.1 to 158 nM.

For the molecule `Cc1cccc(-c2nccc(Nc3ccnc(Nc4cccc(C(=O)N5CCN(C(C)C)CC5)c4)n3)n2)n1` [Compound 292, (4-isopropylpiperazin-1-yl)-[3-[[4-[[2-(6-methyl-2-pyridyl)pyrimidin-4-yl]amino]pyrimidin-2-yl]amino]phenyl]methanone], the Ki in test [1] is 0.398 to 3.16 nM. For the same molecule, in test [2], the IC50 is 25.1 to 158 nM.

As to `CNC(=O)[C@H]1CN(Cc2ccc(Nc3nccc(Nc4ccnc(-c5cccc(C)n5)n4)n3)cc2)CCN1` [Compound 293, (2R)-N-methyl-4-[[4-[[4-[[2-(6-methyl-2-pyridyl)pyrimidin-4-yl]amino]pyrimidin-2-yl]amino]phenyl]methyl] piperazine-2-carboxamide], the Ki in test [1] was 0.0398 to 0.316 nM. Further, the IC50 in test [2] was 25.1 to 158 nM.

For the molecule `Cc1cccc(-c2nccc(Nc3ccnc(Nc4ccc(F)c(CO)c4)n3)n2)n1` [Compound 294, [2-fluoro-5-[[4-[[2-(6-methyl-2-pyridyl)pyrimidin-4-yl]amino]pyrimidin-2-yl]amino]phenyl]methanol], the Ki in test [1] was 0.0398 to 0.316 nM. For the same molecule, the IC50 in test [2] was ≤ 20 nM.

With `Cc1cccc(-c2nccc(Nc3ccnc(Nc4ccc(Cl)c(CO)c4)n3)n2)n1` [Compound 295, [2-chloro-5-[[4-[[2-(6-methyl-2-pyridyl)pyrimidin-4-yl]amino]pyrimidin-2-yl]amino]phenyl]methanol], the Ki in test [1] was 0.0398 to 0.316 nM. The IC50 in test [2] is 25.1 to 158 nM.

In the case of `Cc1cccc(-c2nccc(Nc3ccnc(Nc4ccc(NS(=O)(=O)C5CNC5)cc4)n3)n2)n1` [Compound 296, N-[4-[[4-[[2-(6-methyl-2-pyridyl)pyrimidin-4-yl]amino]pyrimidin-2-yl]amino]phenyl]azetidine-3-sulfonamide], the Ki in test [1] is 0.398 to 3.16 nM. In addition, the IC50 in test [2] is 200 to 1260 nM.

Regarding `Cc1cccc(-c2nccc(Nc3ccnc(Nc4ccc(CN5CCC(C(=O)O[C@H]6CCN(C)C6)CC5)cc4)n3)n2)n1` [Compound 297, [(3S)-1-methylpyrrolidin-3-yl] 1-[[4-[[4-[[2-(6-methyl-2-pyridyl)pyrimidin-4-yl]amino]pyrimidin-2-yl]amino]phenyl]methyl] piperidine-4-carboxylate], the Ki in test [1] was 0.0398 to 0.316 nM. The IC50 in test [2] was 200 to 1260 nM.

In the case of `Cc1cccc(-c2nccc(Nc3ccnc(Nc4cccc(NC(=O)N5CCNCC5)c4)n3)n2)n1` [Compound 298, N-[3-[[4-[[2-(6-methyl-2-pyridyl)pyrimidin-4-yl]amino]pyrimidin-2-yl]amino]phenyl]piperazine-1-carboxamide], the Ki in test [1] is 0.0398 to 0.316 nM. In addition, in test [2], the IC50 was 25.1 to 158 nM.

Take `Cc1cccc(-c2nccc(Nc3ccnc(Nc4cccc(NC(=O)C5(O)CNC5)c4)n3)n2)n1` [Compound 299, 3-hydroxy-N-[3-[[4-[[2-(6-methyl-2-pyridyl)pyrimidin-4-yl]amino]pyrimidin-2-yl]amino]phenyl]azetidine-3-carboxamide]: the Ki in test [1] was 0.0398 to 0.316 nM. In addition, in test [2], the IC50 was 25.1 to 158 nM.

With `Cc1cccc(-c2nccc(Nc3ccnc(Nc4ccc(N5CCOCC5)c(F)c4)n3)n2)n1` [Compound 300, N2-(3-fluoro-4-morpholino-phenyl)-N4-[2-(6-methyl-2-pyridyl)pyrimidin-4-yl]pyrimidine-2,4-diamine], in test [1], the Ki is 0.0398 to 0.316 nM. Besides, in test [2], the IC50 was 25.1 to 158 nM.

On to `Cc1cccc(-c2nccc(Nc3ccnc(Nc4ccc(CN5CCN(CCO)CC5)cc4)n3)n2)n1` [Compound 301, 2-[4-[[4-[[4-[[2-(6-methyl-2-pyridyl)pyrimidin-4-yl]amino]pyrimidin-2-yl]amino]phenyl]methyl]piperazin-1-yl]ethanol], for which the Ki in test [1] was 0.0398 to 0.316 nM. The IC50 in test [2] was 25.1 to 158 nM.

Turning to `Cc1cccc(-c2nccc(Nc3ccnc(Nc4ccc(N5CCC(CN)CC5)cc4)n3)n2)n1` [Compound 302, N2-[4-[4-(aminomethyl)-1-piperidyl]phenyl]-N4-[2-(6-methyl-2-pyridyl)pyrimidin-4-yl]pyrimidine-2,4-diamine], in test [1], the Ki is 0.0398 to 0.316 nM. Moreover, the IC50 in test [2] is 25.1 to 158 nM.

For the molecule `Cc1cccc(-c2nccc(Nc3ccnc(Nc4ccc(NS(=O)(=O)N5CCN(C)CC5)cc4)n3)n2)n1` [Compound 303, 4-methyl-N-[4-[[4-[[2-(6-methyl-2-pyridyl)pyrimidin-4-yl]amino]pyrimidin-2-yl]amino]phenyl]piperazine-1-sulfonamide], in test [1], the Ki was 0.398 to 3.16 nM. Besides, the IC50 in test [2] was 25.1 to 158 nM.

For `CCOC(=O)Cc1ccc(Nc2nccc(Nc3ccnc(-c4cccc(C)n4)n3)n2)cc1` [Compound 304, ethyl 2-[4-[[4-[[2-(6-methyl-2-pyridyl)pyrimidin-4-yl]amino]pyrimidin-2-yl]amino]phenyl]acetate], the Ki in test [1] was 0.398 to 3.16 nM. Also, the IC50 in test [2] is 25.1 to 158 nM.

Regarding `Cc1cccc(-c2nccc(Nc3ccnc(Nc4ccc(CN5CCN(C)CC5)cc4)n3)n2)n1` [Compound 305, N2-[4-[(4-methylpiperazin-1-yl)methyl]phenyl]-N4-[2-(6-methyl-2-pyridyl)pyrimidin-4-yl]pyrimidine-2,4-diamine], the Ki in test [1] was 0.0398 to 0.316 nM. For the same molecule, the IC50 in test [2] is 25.1 to 158 nM.

On to `Cc1cccc(-c2nccc(Nc3ccnc(Nc4cccc(S(=O)(=O)N5CCNCC5)c4)n3)n2)n1` [Compound 306, N4-[2-(6-methyl-2-pyridyl)pyrimidin-4-yl]-N2-(3-piperazin-1-ylsulfonylphenyl)pyrimidine-2,4-diamine], for which the Ki in test [1] is 3.98 to 31.6 nM. For the same molecule, the IC50 in test [2] was 25.1 to 158 nM.

For `COC(=O)[C@@H]1CN(c2ccc(Nc3nccc(Nc4ccnc(-c5cccc(C)n5)n4)n3)cc2)CCN1` [Compound 307, methyl (2S)-4-[4-[[4-[[2-(6-methyl-2-pyridyl)pyrimidin-4-yl]amino]pyrimidin-2-yl]amino]phenyl]piperazine-2-carboxylate], in test [1], the Ki is 0.0398 to 0.316 nM. The IC50 in test [2] is 25.1 to 158 nM.

For `Cc1cccc(-c2nccc(Nc3ccnc(Nc4cccc(C(=O)O[C@H]5CCN(C)C5)c4)n3)n2)n1` [Compound 308, [(3S)-1-methylpyrrolidin-3-yl] 3-[[4-[[2-(6-methyl-2-pyridyl)pyrimidin-4-yl]amino]pyrimidin-2-yl]amino]benzoate], the Ki in test [1] was 0.398 to 3.16 nM. Further, the IC50 in test [2] was 200 to 1260 nM.

Turning to `Cc1cccc(-c2nccc(Nc3ccnc(Nc4ccc(NCC5(CO)CNC5)cc4)n3)n2)n1` [Compound 310, [3-[[4-[[4-[[2-(6-methyl-2-pyridyl)pyrimidin-4-yl]amino]pyrimidin-2-yl]amino]anilino]methyl]azetidin-3-yl] methanol], the Ki in test [1] is 0.398 to 3.16 nM. Also, the IC50 in test [2] was 25.1 to 158 nM.

For `Cc1cccc(-c2nccc(Nc3ccnc(Nc4ccc(C)c(CN5CCN(C)CC5)c4)n3)n2)n1` [Compound 311, N2-[4-methyl-3-[(4-methylpiperazin-1-yl)methyl]phenyl]-N4-[2-(6-methyl-2-pyridyl)pyrimidin-4-yl]pyrimidine-2,4-diamine], in test [1], the Ki was 0.0398 to 0.316 nM. Moreover, the IC50 in test [2] is 25.1 to 158 nM.

In the case of `COC(=O)c1cc(Nc2nccc(Nc3ccnc(-c4cccc(C)n4)n3)n2)ccc1N1CCNCC1` [Compound 312, methyl 5-[[4-[[2-(6-methyl-2-pyridyl)pyrimidin-4-yl]amino]pyrimidin-2-yl]amino]-2-piperazin-1-yl-benzoate], the Ki in test [1] was 0.0398 to 0.316 nM. Moreover, the IC50 in test [2] is 25.1 to 158 nM.

For `Cc1cccc(-c2nccc(Nc3ccnc(Nc4ccc(CN5CCC(C(=O)O[C@@H]6CCNC6)CC5)cc4)n3)n2)n1` [Compound 313, [(3R)-pyrrolidin-3-yl] 1-[[4-[[4-[[2-(6-methyl-2-pyridyl)pyrimidin-4-yl]amino]pyrimidin-2-yl]amino]phenyl]methyl] piperidine-4-carboxylate], the Ki in test [1] was 0.0398 to 0.316 nM. Besides, the IC50 in test [2] was 25.1 to 158 nM.

Take `Fc1cc(F)c(-c2nccc(Nc3ccnc(Nc4ccc(N5CCC(N6CCCC6)CC5)cc4)n3)n2)cc1Cl` [Compound 314, N4-[2-(5-chloro-2,4-difluoro-phenyl)pyrimidin-4-yl]-N2-[4-(4-pyrrolidin-1-yl-1-piperidyl)phenyl]pyrimidine-2,4-diamine]: in test [1], the Ki was 0.0398 to 0.316 nM. In addition, the IC50 in test [2] was 25.1 to 158 nM.

Take `Cc1cccc(-c2nccc(Nc3ccnc(Nc4cccc(N)c4)n3)n2)n1` [Compound 315, N2-(3-aminophenyl)-N4-[2-(6-methyl-2-pyridyl)pyrimidin-4-yl]pyrimidine-2,4-diamine]: in test [1], the Ki is 0.0398 to 0.316 nM. The IC50 in test [2] was ≤ 20 nM.

`CC(=O)Nc1ccc(Nc2nccc(Nc3ccnc(-c4cccc(C)n4)n3)n2)cc1` [Compound 316, N-[4-[[4-[[2-(6-methyl-2-pyridyl)pyrimidin-4-yl]amino]pyrimidin-2-yl]amino]phenyl]acetamide]: the Ki in test [1] was 0.398 to 3.16 nM. Further, the IC50 in test [2] was 25.1 to 158 nM.

These data come from patent US20230399312A1, “SUBSTITUTED PYRIMIDINES AND METHODS OF USE” (THERAVANCE BIOPHARMA R&D IP, LLC, priority 2020, published 2023).
